Data set [1] addresses smooth muscle angiotensin II receptor. The data set can be described thus: Assay A: Angiotensin II Binding Activity (125I-AII displacement, rat uterine membrane preparation). As to conditions: 50% displacement of specifically bound 125I-AII, rat uterine membranes, 25° C., 60 min. As for the experimental part: Compounds of the invention were tested for ability to bind to the smooth muscle angiotensin II receptor using a rat uterine membrane preparation. […] Other chemicals were obtained from Sigma Chemical Co. This assay was carried out according to the method of Douglas et al [Endocrinology, 106, 120-124 (1980)]. Rat uterine membranes were prepared from fresh tissue. All procedures were carried out at 4° C. Uteri were stripped of fat and homogenized in phosphate-buffered saline at pH 7.4 containing 5 mM EDTA. The homogenate was centrifuged at 1500×g for 20 min., and the supernatant was recentrifuged at 100,000×g for 60 min. The pellet was resuspended in buffer consisting of 2 mM EDTA and 50 mM Tris-HCl (pH 7.5) to a final protein concentration of 4 mg/ml. […] The reaction was initiated by the addition of membrane protein and the mixture was incubated at 25° C. for 60 min. The incubation was terminated with ice-cold 50 mM Tris-HCl (pH 7.5) and the mixture was filtered to separate membrane-bound labelled peptide from the free ligand. The incubation tube and filter were washed with ice-cold buffer. Filters were assayed for radioactivity in a Micromedic gamma counter. Nonspecific binding was defined as binding in the presence of 10 μM of unlabelled AII. Specific binding was calculated as total binding minus nonspecific binding.
Binding data were analyzed by a nonlinear least-squares curve fitting program.

A further data set has as its system rabbit aortic rings. Description: Assay B: In Vitro Vascular Smooth Muscle Response for AII. In kind it is cell-based. Further details: key: NC = Non-competitive Antagonist. As to conditions: AII contraction. As for the experimental part:
The compounds of the invention were tested for antagonist activity in rabbit aortic rings. Male New Zealand white rabbits (2-2.5 kg) were sacrificed using an overdose of pentobarbital and exsanguinated via the carotid arteries. The thoracic aorta was removed, cleaned of adherent fat and connective tissue and then cut into 3-mm ring segments. The endothelium was removed from the rings by gently sliding a rolled-up piece of filter paper into the vessel lumen. The rings were then mounted in a water-jacketed tissue bath, maintained at 37° C., between moveable and fixed ends of a stainless steel wire with the moveable end attached to an FT03 Grass transducer coupled to a Model 7D Grass Polygraph for recording isometric force responses. The bath was filled with 20 ml of oxygenated (95% oxygen/5% carbon dioxide) Krebs solution of the following composition (mM): […], 1.2 NaH2P04, 1.2 MgS04, 2.5 CaCl2, and 11.4 glucose. The preparations were equilibrated for one hour before approximately one gram of passive tension was placed on the rings. Angiotensin II concentration-response curves were then recorded (3×10^−10 to 1×10^−5 M). […] The effectiveness of the test compound was expressed in terms of pA2 values and were calculated according to H. O. Schild [Br. J. Pharmacol. Chemother., 2,189-206 (1947)]. […] Each test antagonist was evaluated in aorta rings from two rabbits.

Another data set relates to pressor response to AII. The data set can be described thus: Assay C: In Vivo Intragastric Pressor Assay Response for AII Antagonists. As to conditions: rat, 3 mg/kg intragastric (i.g.); for Assay C Inhibition (%): inhibition of pressor response to 30 ng/kg AII bolus; for Assay C Duration: duration of inhibition of AII pressor response, measured up to 180 min. On the procedure: Male Sprague-Dawley rats weighing 225-300 grams were anesthetized with methohexital (30 mg/kg, i.p.) and catheters were implanted into the femoral artery and vein. The catheters were tunneled subcutaneously to exit dorsally, posterior to the head and between the scapulae. The catheters were filled with heparin (1000 units/ml of saline). The rats were returned to their cage and allowed regular rat chow and water ad libitum. After full recovery from surgery (3-4 days), rats were placed in Lucite holders and the arterial line was connected to a pressure transducer. Arterial pressure was recorded on a Gould polygraph (mmHg). Angiotensin II was administered as a 30 ng/kg bolus via the venous catheter delivered in a 50 μl volume with a 0.2 ml saline flush. The pressor response in mm Hg was measured by the difference from pre-injection arterial pressure to the maximum pressure achieved. The AII injection was repeated every 10 minutes until three consecutive injections yielded responses within 4 mmHg of each other. These three responses were then averaged and represented the control response to AII. The test compound was suspended in 0.5% methylcellulose in water and was administered by gavage. The volume administered was 2 ml/kg body weight. The standard dose was 3 mg/kg. Angiotensin II bolus injections were given at 30, 45, 60, 75, 120, 150, and 180 minutes after gavage. The pressor response to AII was measured at each time point. The rats were then returned to their cage for future testing. A minimum of 3 days was allowed between tests. Percent inhibition was calculated for each time point following gavage by the following formula: [(Control Response—Response at time point)/Control Response] ×100.

Molecules are shown by their SMILES. A value given as a limit tells only on which side of the number the result lay.

What is called IC50 is the concentration that gives 50% inhibition. A word on the melting point: it is the temperature of the solid-liquid transition. As to `CCCCc1cn(-c2ccccc2CC)c(=O)n1Cc1ccc(-c2ccccc2-c2nnn[nH]2)cc1` [Example 1, 1-(2-ethylphenyl)-4-butyl-1,3-dihydro-3-[2′-(1H-tetrazol-5-yl)[1,1′-biphenyl]-4-ylmethyl]-2H-imidazol-2-one], the melting point is 188 to 189 °C. The same compound yielded an IC50 in data set [1] of 0.014 µM. Further, in the data set on rabbit aortic rings, the “Assay B pA2: type of antagonism” value is reported as “NC”. In addition, the “Assay C Inhibition (%)” value in the data set on pressor response to AII is recorded as 20%/—.

For `CCCCc1cn(-c2ccccc2C(C)C)c(=O)n1Cc1ccc(-c2ccccc2-c2nnn[nH]2)cc1` [Example 2, 1-(2-isopropylphenyl)-4-butyl-1,3-dihydro-3-[2′-(1H -tetrazol-5-yl)[1,1′-biphenyl]-4-ylmethyl]-2H-imidazol-2-one], the melting point is 167 to 168 °C. Moreover, the IC50 in data set [1] was 0.097 µM. Further, in the data set on rabbit aortic rings, the “Assay B pA2: type of antagonism” value is given as “NC”. Besides, in the data set on pressor response to AII, the “Assay C Duration” value was more than 180 min and the “Assay C Inhibition (%)” value is reported as 70%.

As for `CCCCc1cn(-c2c(OC)cccc2OC)c(=O)n1Cc1ccc(-c2ccccc2-c2nnn[nH]2)cc1` [Example 3, 1-(2,6-dimethoxyphenyl)-4-butyl-1,3-dihydro-3-[2′-(1H -tetrazol-5-yl)[1,1′-biphenyl]-4-ylmethyl]-2H-imidazol-2-one], the melting point is 189 to 191 °C (dec.). The compound further gave an IC50 in data set [1] of 0.0098 µM. Besides, in the data set with pressor response to AII, the “Assay C Duration” value was more than 180 min and the “Assay C Inhibition (%)” value is 25%.

On to `CCCCc1cn(-c2c(C)cccc2Cl)c(=O)n1Cc1ccc(-c2ccccc2-c2nnn[nH]2)cc1` [Example 4, 1-(2-chloro-6-methylphenyl) -4-butyl-1,3-dihydro-3-[2′-(1H-tetrazol-5-yl) [1,1′-biphenyl]-4-ylmethyl]-2H -imidazol-2-one], for which the melting point lay in the range of 163 to 164 °C. Further, in data set [1], the IC50 turned out to be 0.013 µM. Also, in the data set with pressor response to AII, the “Assay C Duration” value was more than 180 min and the “Assay C Inhibition (%)” value was 35%.

For the compound `CCCCc1cn(-c2c(C)cccc2C)c(=O)n1Cc1ccc(-c2ccccc2-c2nnn[nH]2)cc1` [Example 5, 1-(2,6-dimethylphenyl)-4-butyl-1,3-dihydro-3-[2′-(1H-tetrazol-5-yl)[1,1′-biphenyl]-4-ylmethyl]-2H -imidazol-2-one], the melting point was 177 to 178 °C (dec.). Besides, the IC50 in data set [1] turned out to be 0.0063 µM. In the data set on pressor response to AII, the “Assay C Duration” value is more than 180 min and the “Assay C Inhibition (%)” value is reported as 40%.

As to `CCCCc1cn(-c2c(CC)cccc2CC)c(=O)n1Cc1ccc(-c2ccccc2-c2nnn[nH]2)cc1` [Example 6, 1-(2,6-diethylphenyl) -4-butyl-1,3-dihydro-3-[2′-(1H -tetrazol-5-yl) [1,1′-biphenyl]-4-ylmethyl]-2H-imidazol-2-one], the melting point was 198 to 200 °C (dec.). Besides, in data set [1], the IC50 amounted to 0.033 µM. The “Assay C Inhibition (%)” value with pressor response to AII was less than 20%.

For the compound `CCCCc1cn(-c2c(C(C)C)cccc2C(C)C)c(=O)n1Cc1ccc(-c2ccccc2-c2nnn[nH]2)cc1` [Example 7, 1-(2,6-diisopropylphenyl)-4-butyl-1,3-dihydro-3-[2′-(1H-tetrazol-5-yl)[1,1′-biphenyl]-4-ylmethyl]-2H -imidazol-2-one], the melting point was 202 to 203 °C (dec.). In addition, the half-inhibitory concentration (IC50) in data set [1] was determined as 0.19 µM.

For `CCCCc1cn(-c2c(C)cc(C)cc2C)c(=O)n1Cc1ccc(-c2ccccc2-c2nnn[nH]2)cc1` [Example 8, 1-(2,4,6-trimethylphenyl)-4-butyl-1,3-dihydro-3-[2′-(1H-tetrazol-5-yl)[1,1′-biphenyl]-4-ylmethyl]-2H -imidazol-2-one], the melting point was 187 to 188 °C (dec.). The same compound gave an IC50 in data set [1] of 0.03 µM. In addition, in the data set on pressor response to AII, the “Assay C Duration” value is more than 180 min and the “Assay C Inhibition (%)” value came to 50%.

Regarding `CCCCc1cn(-c2c(C)cc(C(C)(C)C)cc2C)c(=O)n1Cc1ccc(-c2ccccc2-c2nnn[nH]2)cc1` [Example 9, 1-(2,6-dimethyl-4-tertbutylphenyl) -4-butyl-1,3-dihydro-3-[2′-(1H-tetrazol-5-yl)[1,1′-biphenyl]-4-ylmethyl]-2H -imidazol-2-one], the melting point was 134 to 135 °C. Besides, in data set [1], the IC50 came to 0.27 µM.

These data come from US6630497B2, “1-phenyl imidazol-2-one biphenylmethyl compounds for treatment of circulatory disorders” (G.D. Searle & Co, priority 1993, dated 2003).
